Assay results: patent publication US20220274947A1, “NOVEL HETEROARYL-TRIAZOLE COMPOUNDS AS PESTICIDES” (Bayer Aktiengesellschaft, priority 2019, published 2022)

Key:
Type in all cases: in vivo
[1] = tested on: Rhipicephalus microplus; test: Rhipicephalus (Boophilus) microplus injection test (BOOPMI Inj); details: 168 h, injection into adult engorged female ticks, egg deposition after 7 days, read-out: activity (efficacy: 100% means all eggs are infertile); for pest or weed control at 0.004 mg: application rate 4 μg/tick; for pest or weed control at 0.02 mg: application rate 20 μg/tick
Protocol: Rhipicephalus (Boophilus) Microplus—Injection Test (BOOPMI Inj)
Solvent: dimethyl sulfoxide
To produce a suitable preparation of active compound, 10 mg of active compound are dissolved in 0.5 mL solvent, and the concentrate is diluted with solvent to the desired concentration.
Five adult engorged female ticks (Rhipicephalus microplus) are injected with 1 μL compound solution into the abdomen. The ticks are transferred into replica plates and incubated in a climate chamber.
After 7 days egg deposition of fertile eggs is monitored. Eggs where fertility is not visible are stored in a climate chamber till hatching after about 42 days. An efficacy of 100% means all eggs are infertile; 0% means all eggs are fertile.

[2] = tested on: Rhipicephalus microplus; test: Rhipicephalus (Boophilus) microplus in-vitro contact test, larval cattle tick, strain Parkhurst (BOOPMI Cont); details: application rate 5 μg/cm^2 (=500 g/ha), tick larvae, after 48 hours, read-out: activity (efficacy: 100% means all larvae are dead or moribund)
Protocol: Rhipicephalus (Boophilus) Microplus—In-Vitro Contact Tests Larval Cattle Tick (Strain Parkhurst, Resistant Against Synthetic Pyrethroids) (BOOPMI Cont)
9 mg compound is solved in 1 mL acetone and diluted with acetone to the desired concentration. 250 μL of the test solution is filled in 25 mL glass test tubes and homogeneously distributed on the inner walls by rotation and tilting on a shaking device (2 h at 30 rpm). With a compound concentration of 900 ppm, an inner surface of 44.7 cm^2 and a homogeneous distribution, a dose of 5 μg/cm^2 is achieved.
After the solvent has evaporated, each test tube is filled with 20-50 cattle tick larvae (Rhipicephalus microplus), closed with a perforated lid and incubated in a horizontal position at 85% relative humidity and 27° C. in an incubator. After 48 hours efficacy is determined. The larvae are patted on the ground of the tubes and negative geotactic behavior is recorded.
An efficacy of 100% means all larvae are dead or moribund; 0% means no larvae are dead or moribund.

[3] = tested on: Ctenocephalides felis; test: Ctenocephalides felis oral test (CTECFE Oral); details: 48 h, read-out: activity (mortality)
Protocol: Ctenocephalides felis—Oral Test (CTECFE Oral) Solvent: dimethyl sulfoxide
To produce a suitable preparation of active compound, 10 mg of active compound are dissolved in 0.5 mL solvent, and the concentrate is diluted with cattle blood to the desired concentration.
Approximately 20 adult unfed cat fleas (Ctenocephalides felis) are placed in flea chambers. The blood chamber, sealed with parafilm on the bottom, are filled with cattle blood supplied with compound solution and placed on the gauze covered top of the flea chamber, so that the fleas are able to suck the blood. The blood chamber is heated to 37° C. whereas the flea chamber is kept at room temperature.
After 2 days mortality in % is determined. 100% means all the fleas have been killed; 0% means none of the fleas have been killed.

[4] = tested on: Diabrotica balteata; test: Diabrotica balteata spray test; details: 168 h, wheat seeds, larvae, after 7 days, read-out: activity (efficacy: 100% means all seedlings have grown up like in the untreated, uninfected control); for pest or weed control at 32 µg/disc, 100 g/ha: application rate 100 g/ha (=32 μg/well)
Protocol: Diabrotica balteata—Spray Test Solvent: 78.0 parts by weight of acetone • • 1.5 parts by weight of dimethylformamide Emulsifier: alkylarylpolyglycol ether
(§1) To produce a suitable preparation of active compound, 1 part by weight of active compound is mixed with the stated amount of solvent, and the concentrate is diluted with water, containing an emulsifier concentration of 1000 ppm, to the desired concentration. Further test concentrations are prepared by dilution with emulsifier containing water.
Soaked wheat seeds (Triticum aestivum) are placed in a multiple well plate filled with agar and some water and are incubated for 1 day to germinate (5 seeds per well). The germinated wheat seeds are sprayed with a test solution containing the desired concentration of the active ingredient. Afterwards each unit is infected with 10-20 larvae of the banded cucumber beetle (Diabrotica balteata).
After 7 days efficacy in % is determined. 100% means all the seedlings have grown up like in the untreated, uninfected control; 0% means none of the seedlings have grown.

[5] = tested on: Myzus persicae; test: Myzus persicae oral test; details: 120 h, read-out: activity (mortality)
Protocol: Myzus persicae—Oral Test Solvent: 100 parts by weight acetone
To produce a suitable preparation of active compound, 1 part by weight of active compound is mixed with the stated amount of solvent, and the concentrate is diluted with water to the desired concentration.
50 μL compound solution is filled in microtiter plates and 150 μL IPL41 insect medium (33%+15% sugar) is added to obtain a total volume of 200 μL per well. Afterwards the plates are sealed with parafilm through which a mixed population of the green peach aphid (Myzus persicae) can suck on the compound preparation.
After 5 days mortality in % is determined. 100% means all aphids have been killed and 0% means none of the aphids have been killed.

[6] = tested on: Spodoptera frugiperda; test: Spodoptera frugiperda spray test; details: in Zea mays, 168 h, read-out: activity (mortality)
Protocol: Spodoptera Fruaiperda—Spray Test
Solvent: 78.0 parts by weight acetone • 1.5 parts by weight dimethylformamide Emulsifier: alkylarylpolyglycol ether
as §1, with “solvents” for “solvent,”, “and” for “and the concentrate”
Maize (Zea mays) leaf sections are sprayed with a preparation of the active ingredient of the desired concentration. Once dry, the leaf sections are infested with fall armyworm larvae (Spodoptera frugiperda).
After 7 days mortality in % is determined. 100% means all caterpillars have been killed and 0% means none of the caterpillars have been killed.

[7] = tested on: Musca domestica strain WHO—N; test: Musca domestica test (MUSCDO surface treatment & contact assay); details: surface concentration 20 mg/m^2, glazed tile, exposure 30 minutes, 24 hours after contact, read-out: efficacy (mortality)
Protocol: Musca domestica Test (MUSCDO Surface Treatment & Contact Assay) Solvent: Aceton+2000 ppm rapeseed oil methyl ester (RME)
(§2) In order to produce a sufficient, active ingredient containing solution it is necessary to solve the test compound in the solvent-mix (acetone at 2 mg/ml/RME 2000 ppm). This solution is pipetted onto a glazed tile and after evaporation of the acetone, adult flies of the species Musca domestica strain WHO—N are placed onto the dried surface. The exposure time is 30 minutes. Mortality in percent (%) is determined 24 hours after contact of the insects to the treated surface. 100% mortality means that all tested insects are dead, whereas 0% means that no insect died.

[8] = tested on: Rhipicephalus sanguineus; test: Rhipicephalus sanguineus in-vitro contact test, adult brown dog ticks (RHIPSA Cont); details: 48 h, after 48 hours, read-out: activity (efficacy: 100% means all ticks are dead or moribund); for pest or weed control at 1 µg/cm2, 100 g/ha: application rate 1 μg/cm^2 (=100 g/ha); for pest or weed control at 5 µg/cm2, 500 g/ha: application rate 5 μg/cm^2 (=500 g/ha)
Protocol: Rhipicephalus sanguineus-In-Vitro Contact Tests with Adult Brown Dog Ticks ([…] Cont) 9 mg compound is solved in 1 mL acetone and diluted with acetone to the desired concentration. 250 μL of the test solution is filled in 25 mL glass test tubes and homogeneously distributed on the inner walls by rotation and tilting on a shaking device (2 h at 30 rpm). […] After 48 hours efficacy is determined. The ticks are patted on the ground of the tubes and are incubated on a heating plate at 45-50° C. for at most 5 minutes. Immotile or uncoordinated moving ticks, which are not able to escape the heat by climbing upwards, are marked as dead or moribund.

[9] = tested on: Aedes aegypti strain MONHEIM; test: Aedes aegypti test (AEDSAE surface treatment & contact assay); details: surface concentration 20 mg/m^2, glazed tile, exposure 30 minutes, 24 hours after contact, read-out: efficacy (mortality)
Protocol: Aedes aegypti Test (AEDSAE Surface Treatment & Contact Assay) Solvent: Aceton+2000 ppm rapeseed oil methyl ester (RME)
as §2, with “mosquitoes” for “flies”, “Aedes aegypti” for “Musca domestica”, “MONHEIM” for “WHO—N”

| Compound | pest or weed control at 0.004 mg [1] [%] | pest or weed control at 5 µg/cm2 [2] [%] | mortality at 100 ppm [3] [%] | pest or weed control at 32 µg/disc, 100 g/ha [4] [%] | mortality at 4 ppm [5] [%] | mortality at 100 g/ha [6] [%] | pest or weed control at 0.02 mg [1] [%] | pest or weed control at 160 µg/disc, 500 g/ha ([4]; application rate 500 g/ha (=160 μg/well)) [%] | mortality at 500 g/ha [6] [%] | mortality at 20 mg/m2 [7] [%] | pest or weed control at 1 µg/cm2, 100 g/ha [8] [%] | pest or weed control at 5 µg/cm2, 500 g/ha [8] [%] | mortality at 20 mg/m2 [9] [%] |
| --- | --- | --- | --- | --- | --- | --- | --- | --- | --- | --- | --- | --- | --- |
| CC(NC(=O)c1cc(C(F)(F)F)cc(C(F)(F)F)c1)c1nc(Br)nn1-c1ccc(C#N)cn1 (racemic) [I-48, 3,5-di(trifluoromethyl)-N-{1-[3-bromo-1-(3-cyano-pyridin-6-yl)-1H-1,2,4-triazol-5-yl]ethyl}-benzamide] | 100 | 100 | 100 | 100 | 90 | 100 |  |  |  |  |  |  |  |
| COc1nc([C@H](C)NC(=O)c2cc(Cl)cc(C(F)(F)F)c2)n(-c2ccc(C#N)cn2)n1 [I-10, 3-chloro-N-{(1S)-1-[1-(5-cyanopyridin-2-yl)-3-methoxy-1H-1,2,4-triazol-5-yl]ethyl}-5-(trifluoromethyl)benzamide] | 100 | 100 | 100 | 100 | 100 | 100 | 100 | 100 | 100 | 80 to 100 |  |  |  |
| CC(C)c1nc([C@H](C)NC(=O)c2cncc(Br)c2)n(-c2ccc(C#N)cn2)n1 [I-27] | 100 | 90 | 100 |  |  |  | 100 |  |  |  | 100 | 100 | 80 to 100 |
| C[C@H](NC(=O)c1cc(Br)cc(C(F)(F)F)c1)c1nc(C2CC2)nn1-c1ccc(C#N)cn1 [I-31] | 100 | 100 | 100 | 100 | 100 |  | 100 |  |  | 80 to 100 |  | 80 |  |
| C[C@H](NC(=O)c1cc(Cl)cc(Br)c1)c1nc(C2CC2)nn1-c1ccc(C#N)cn1 [I-32] | 100 | 100 | 100 | 100 | 100 | 100 | 100 |  |  |  | 80 | 100 |  |
